One series relates to Human Colon Cancer HT-29. The experiment in a line: Cell proliferation experiment (Alarm blue), HT-29. The class given is cell-based. The procedure, abridged: (§1)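 Log-phase cells in 96-well plates were exposed 72 h to compound in a 5-fold dilution series, duplicate wells. Viability was measured by Alamar blue fluorescence, and IC50 was derived from a fit using minimum, maximum and slope.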

Series [1] relates to human gastric carcinoma cells N87. The experiment in a line: Cell proliferation experiment (Alarm blue), N87. The class given is cell-based. The procedure, abridged: as §1
In series [2] the test system is Human Small Cell Lung Cancer NCI-H82. Briefly: Cell proliferation experiment (Alarm blue), H82. The class given is cell-based. The procedure, abridged:
as §1

For series [3], the system named is human small cell lung cancer NCI-H82 xenograft tumor. The experiment in a line: In vivo efficacy in nude mouse xenograft tumor model of human small cell lung cancer NCI-H82. Further details: species or system BALB/c nude mice. As to conditions: nude mice. The procedure: Transplanted tumor cell line: human small cell lung cancer cell NCI-H82, derived from the American Type Culture Collection Center (ATCC, cryopreserved in liquid nitrogen in the laboratory). Under 5% CO2 and 37° C. culture conditions, cells were routinely cultured in RPMI-1640 culture medium containing 10% fetal bovine serum; they were passaged according to cell growth, with a passage ratio of 1:2 to 1:5.
Experimental animal: Female BALB/c nude mice (number: 65; age: 6-8 weeks) were purchased from Charles River and raised in the SPF animal room of Suzhou Shengsu New Pharmaceutical Development Co., Ltd. (3D Biooptima). The temperature is 20 to 25° C., and relative humidity is 40% to 70%, with bright light and dark light for 12 hours each; animals were free to drink and eat. After normal feeding for about 5 days, mice with good physical signs can be selected for this experiment after veterinary inspection. Before grouping, animals were identified at the base of tail using maker pens. After grouping, each animal was identified by ear clipping.
Animal model preparation: NCI-H82 cells at logarithmic growth phase were collected, the cells were resuspended in 50% serum-free RPMI-1640 medium and 50% Matrigel after counting. The concentration of cells was adjusted to […] cells/mL. […] After inoculation, the animal status and tumor growth were regularly observed, the tumor diameter was measured using a electronic vernier caliper, the data were entered into Excel to calculate the tumor volume. […] After the start of experiment, the tumor diameter was measured twice a week, the tumor volume was calculated, and the animal weight was weighed and recorded at the same time. […]
Preparation of UB-181322 sample: An appropriate amount of UB series sample was weighed and put it into a glass bottle; an appropriate volume of DMSO was added. […] The liquid was vortexed to mix evenly, with the proportions of DMSO, 30% Solutol aqueous solution and ultrapure water in the liquid being 5%, 20% and 75%, to obtain preparations with appropriate final concentrations, which are ready for use. […]

Series [4] concerns Human Colon Cancer cells Colo205. Briefly: Cell proliferation experiment (Alarm blue), Colo205. The class given is cell-based. The procedure, abridged:
as §1

Series [5] relates to Human Small Cell Lung Cancer H69. Briefly: Cell proliferation experiment (Alarm blue), H69. The class given is cell-based. The procedure, abridged: as §1
The mark [6] stands for this setting: HT-29 cells, 72 h culture, read-out: Anti cell proliferative activity EC50, HT-29.
[7] abbreviates: N87 cells, 72 h culture, read-out: Anti cell proliferative activity EC50, N87.
Where [8] appears, read: H82 cells, 72 h culture, read-out: Anti cell proliferative activity EC50, H82.
[9] abbreviates: injection 23 mg/kg once every two days (FIG. 3B).
The mark [10] stands for this setting: Colo205 cells, 72 h culture, read-out: Anti cell proliferative activity EC50, Colo205.
[11] abbreviates: H69 cells, 72 h culture, read-out: Anti cell proliferative activity EC50, H69.

Where two headings read alike, the source gives them in different places. Numbered stars: 1 amine (or outer) side, 2 acyl side, 3 side chain; on linkers, the order of the positions; unused ones are H or OH. Bridge positions count the residues as written; N and C are the ends. Square brackets hold non-standard residues; d marks the D form. Peptide text beside a SMILES is read from it. I, II: the chains in the order shown. * marks the point of attachment. X1 = NC(=O)c1ccccc1Nc1nc(Nc2ccc(N3CCN(C(=O)NC4CCC(N(CCC#Cc5ccc6c(c5)CN(C5CCC(=O)NC5=O)C6=O)C(=O)OCCS*)CC4)CC3)cc2)ncc1Cl; X2 = NC(=O)c1ccccc1Nc1nc(Nc2ccc(N3CCN(C(=O)NC4CCC(N(CCC#Cc5ccc6c(c5)CN(C5CCC(=O)NC5=O)C6=O)*)CC4)CC3)cc2)ncc1Cl; Succinimide(1-C2H4CO,3-yl) = O=C1CC([*:1])C(=O)N1CCC(=O)[*:2]; PABC = O=C(OCc1ccc(N[*:1])cc1)[*:2]; Thr(ol) = C[C@@H](O)[C@H](N)CO Where only a bound is given, the exact number is not on record here.

Turning to `CC(C)[C@@H](NC(=O)CCOCCOCCOCCOCCOCCOCCOCCOCCN1C(=O)CC(SC[C@H](N)C(=O)N[C@H](Cc2ccccc2)C(=O)N[C@H]2CSSC[C@@H](C(=O)N[C@H](CO)[C@@H](C)O)NC(=O)[C@H]([C@@H](C)O)NC(=O)[C@H](CCCCN)NC(=O)[C@@H](Cc3c[nH]c4ccccc34)NC(=O)[C@H](Cc3ccccc3)NC2=O)C1=O)C(=O)N[C@@H](C)C(=O)Nc1ccc(COC(=O)N(CCC#Cc2ccc3c(c2)CN(C2CCC(=O)NC2=O)C3=O)[C@H]2CC[C@H](NC(=O)N3CCN(c4ccc(Nc5ncc(Cl)c(Nc6ccccc6C(N)=O)n5)cc4)CC3)CC2)cc1` (stereo partly drawn) [UB-181322], the EC50 (usually the midpoint of the concentration-response curve) with Human Colon Cancer HT-29 (setting [6]) was above 1000 nM; in series [1] (setting [7]) it was 470 nM; in series [2] (setting [8]) it was 312 nM; in series [4] (setting [10]) it was 384 nM; in series [5] (setting [11]), above 1000 nM. Also, the “tumor inhibitory effect compared with blank group” value in series [3] (injection 23 mg/kg once every two days (FIG. 3A)) is “shows the effect of inhibiting tumor growth”. For the same compound, the “mouse body weight during the administration period” value in series [3] (setting [9]) is listed as “does not change significantly”. In series [3] (setting [9]), the toxicity entry was “low”.

Consider `CC[C@@H]1C(=O)N(C)c2cnc(Nc3ccc(-c4cn([C@H]5CC[C@@H](N(CCOCCC#Cc6cccc7c6CN(C6CCC(=O)NC6=O)C7=O)C(=O)OCc6ccc(NC(=O)[C@H](CC(N)=O)NC(=O)[C@H](C)NC(=O)[C@H](C)NC(=O)CCCCCN7C(=O)CC(SC[C@H](NC(=O)[C@H](CC(=O)O)NC(=O)[C@H](CC(=O)O)NC(=O)[C@H](CCCNC(=N)N)NC(=O)[C@H](CC(=O)O)NC(=O)CCC(NC(=O)c8ccc(NCc9cnc%10nc(N)[nH]c(=O)c%10n9)cc8)C(=O)O)C(=O)O)C7=O)cc6)CC5)nn4)cc3OC)nc2N1C1CCCC1` (stereo partly drawn) [UB-181337], for which the EC50 with Human Colon Cancer HT-29 (72 h) is 233 nM; in series [1] (72 h) it was 175 nM; in series [2] (72 h), 183 nM; in series [4] (72 h) it was 33.1 nM; in series [5] (72 h) it was 79.3 nM.

Turning to `CC[C@@H]1C(=O)N(C)c2cnc(Nc3ccc(-c4cn([C@H]5CC[C@@H](N(CCOCCC#Cc6cccc7c6CN(C6CCC(=O)NC6=O)C7=O)C(=O)OCCSSC[C@H](NC(=O)CC[C@H](NC(=O)c6ccc(NCc7cnc8nc(N)[nH]c(=O)c8n7)cc6)C(=O)O)C(=O)N[C@H](Cc6ccccc6)C(=O)N[C@H]6CSSC[C@@H](C(=O)N[C@H](CO)[C@@H](C)O)NC(=O)[C@H]([C@@H](C)O)NC(=O)[C@H](CCCCN)NC(=O)[C@@H](Cc7c[nH]c8ccccc78)NC(=O)[C@H](Cc7ccccc7)NC6=O)CC5)nn4)cc3OC)nc2N1C1CCCC1` (stereo partly drawn) [UB-181339], the EC50 is above 1000 nM in the series with Human Colon Cancer HT-29 (setting [6]); 456 nM in series [1] (setting [7]); 236 nM in series [2] (setting [8]); 249 nM in series [4] (setting [10]); above 1000 nM in series [5] (setting [11]).

On to `C[C@@H](O)[C@@H]1NC(=O)[C@H](CCCCN)NC(=O)[C@@H](Cc2c[nH]c3ccccc23)NC(=O)[C@H](Cc2ccccc2)NC(=O)[C@@H](NC(=O)[C@@H](Cc2ccccc2)NC(=O)[C@@H](N)CSC2CC(=O)N(CCC(=O)N[C@@H](CC(=O)O)C(=O)N[C@@H](CCCNC(=N)N)C(=O)N[C@@H](CC(=O)O)C(=O)N[C@@H](CC(=O)O)C(=O)N[C@@H](CSSCCOC(=O)N(CCC#Cc3ccc4c(c3)CN(C3CCC(=O)NC3=O)C4=O)C3CCC(NC(=O)N4CCN(c5ccc(Nc6ncc(Cl)c(Nc7ccccc7C(N)=O)n6)cc5)CC4)CC3)C(=O)O)C2=O)CSSC[C@@H](C(=O)N[C@H](CO)[C@@H](C)O)NC1=O` (stereo partly drawn) [UB-181342] (I: H-C[dF]CF[dW]KTC[Thr(ol)] / II: DRDDC(X1)-OH; linker I:1-II:N via Succinimide(1-C2H4CO,3-yl); disulfide I:3-I:8), for which the EC50 in the series on Human Colon Cancer HT-29 (72 h) was above 1000 nM; in series [1] (72 h), above 1000 nM; in series [2] (72 h) it was 746 nM; in series [4] (72 h), 847 nM; in series [5] (72 h) it was above 1000 nM.

With `C[C@H](NC(=O)[C@H](CC(=O)O)NC(=O)[C@H](CC(=O)O)NC(=O)[C@H](CCCNC(=N)N)NC(=O)[C@H](CC(=O)O)NC(=O)CCN1C(=O)CC(SC[C@H](N)C(=O)N[C@@H](Cc2ccccc2)C(=O)N[C@H]2CSSC[C@@H](C(=O)N[C@H](CO)[C@@H](C)O)NC(=O)[C@H]([C@@H](C)O)NC(=O)[C@H](CCCCN)NC(=O)[C@@H](Cc3c[nH]c4ccccc34)NC(=O)[C@H](Cc3ccccc3)NC2=O)C1=O)C(=O)N[C@@H](CC(N)=O)C(=O)Nc1ccc(COC(=O)N(CCC#Cc2ccc3c(c2)CN(C2CCC(=O)NC2=O)C3=O)C2CCC(NC(=O)N3CCN(c4ccc(Nc5ncc(Cl)c(Nc6ccccc6C(N)=O)n5)cc4)CC3)CC2)cc1` (stereo partly drawn) [UB-181343] (I: H-CFCF[dW]KTC[Thr(ol)] / II: DRDDAN[PABC]-X2; linker I:1-II:N via Succinimide(1-C2H4CO,3-yl); disulfide I:3-I:8), the EC50 in the series on Human Colon Cancer HT-29 (72 h) was above 1000 nM; in series [1] (72 h), 305 nM; in series [2] (72 h), 103 nM; in series [4] (72 h), 285 nM; in series [5] (72 h), 738 nM.

For `C[C@H](NC(=O)[C@H](C)NC(=O)[C@H](CS(=O)(=O)O)NC(=O)CCN1C(=O)CC(SC[C@H](N)C(=O)N[C@H](Cc2ccccc2)C(=O)N[C@H]2CSSC[C@@H](C(=O)N[C@H](CO)[C@@H](C)O)NC(=O)[C@H]([C@@H](C)O)NC(=O)[C@H](CCCCN)NC(=O)[C@@H](Cc3c[nH]c4ccccc34)NC(=O)[C@H](Cc3ccccc3)CC2=O)C1=O)C(=O)N[C@@H](CC(N)=O)C(=O)Nc1ccc(COC(=O)N(CCC#Cc2ccc3c(c2)CN(C2CCC(=O)NC2=O)C3=O)C2CCC(NC(=O)N3CCN(c4ccc(Nc5ncc(Cl)c(Nc6ccccc6C(N)=O)n5)cc4)CC3)CC2)cc1` (stereo partly drawn) [UB-181345], the EC50 is above 1000 nM in the series with Human Colon Cancer HT-29 (setting [6]); 300 nM in series [1] (setting [7]); 92.9 nM in series [2] (setting [8]); 274 nM in series [4] (setting [10]); above 1000 nM in series [5] (setting [11]).

Source of the values: patent US20250041306A1, “TARGETED PROTEASE DEGRADATION (TED) PLATFORM” (EUBULUS BIOTHERAPEUTICS INC., priority 2021, published 2025).
